From patent US20260137703A1, “2-AMINO-PYRIDO[2,3-D]PYRIMIDIN-7(8H)-ONE AND 7-AMINO-1-PYRIMIDO[4,5-D]PYRIMIDIN-2(1 H)-ONE DERIVATIVES AS EGFR INHIBITORS FOR THE TREATMENT OF CANCER” (Cancer Research Technology Limited, priority 2022, published 2026)

Columns and labels:
[1] = target: T1, Phospho-EGFR (Tyr1068) in H1975 cells (Homo sapiens, UniProt P00533, L858R/T790M); experiment: HTRF pEGFR/total EGFR in H1975 cells; assay type: cell-based; details: ratio pEGFR/total EGFR, compound 3 hours
T1 construct: host or cells: H1975
T1 sequence (P00533 25-1210 T790M/L858R): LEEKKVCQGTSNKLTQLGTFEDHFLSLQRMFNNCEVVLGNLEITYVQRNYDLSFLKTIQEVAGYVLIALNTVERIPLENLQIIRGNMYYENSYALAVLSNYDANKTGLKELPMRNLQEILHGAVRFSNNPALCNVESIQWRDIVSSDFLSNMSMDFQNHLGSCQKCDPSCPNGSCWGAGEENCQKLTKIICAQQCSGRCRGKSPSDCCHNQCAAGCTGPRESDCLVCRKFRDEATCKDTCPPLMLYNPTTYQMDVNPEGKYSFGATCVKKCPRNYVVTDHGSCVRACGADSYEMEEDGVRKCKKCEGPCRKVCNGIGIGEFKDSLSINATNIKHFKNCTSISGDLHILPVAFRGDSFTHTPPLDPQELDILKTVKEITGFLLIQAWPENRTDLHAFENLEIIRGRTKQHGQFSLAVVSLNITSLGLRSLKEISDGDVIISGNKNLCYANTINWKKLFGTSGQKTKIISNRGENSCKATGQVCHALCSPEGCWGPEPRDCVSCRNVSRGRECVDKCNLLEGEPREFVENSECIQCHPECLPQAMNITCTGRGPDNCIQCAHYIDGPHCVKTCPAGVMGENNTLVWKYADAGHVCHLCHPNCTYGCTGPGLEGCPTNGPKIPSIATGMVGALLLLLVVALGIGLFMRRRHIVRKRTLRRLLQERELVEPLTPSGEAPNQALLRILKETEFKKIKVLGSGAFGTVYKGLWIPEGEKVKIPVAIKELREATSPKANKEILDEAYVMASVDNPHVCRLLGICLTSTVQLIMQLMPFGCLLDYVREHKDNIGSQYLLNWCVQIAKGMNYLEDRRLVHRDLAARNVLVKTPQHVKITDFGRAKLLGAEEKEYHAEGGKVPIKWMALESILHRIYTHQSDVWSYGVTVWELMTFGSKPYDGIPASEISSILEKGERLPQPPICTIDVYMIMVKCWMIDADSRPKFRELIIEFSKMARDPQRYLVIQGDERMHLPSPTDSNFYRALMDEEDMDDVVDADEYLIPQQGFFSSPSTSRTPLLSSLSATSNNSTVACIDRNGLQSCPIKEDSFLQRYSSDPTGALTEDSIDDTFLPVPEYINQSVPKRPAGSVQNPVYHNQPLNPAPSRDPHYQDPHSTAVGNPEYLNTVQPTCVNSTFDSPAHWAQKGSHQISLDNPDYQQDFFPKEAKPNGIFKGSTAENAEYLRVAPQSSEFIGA
Summary of the method: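 Readout is the phospho-EGFR (Tyr1068) to total EGFR HTRF ratio, expressed relative to 0 μM control. Adhered H1975 cells were exposed to compound for 3 hours at 0.1% DMSO, duplicate wells, then lysed for 30 min at room temperature before two-wavelength fluorescence reading.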

[2] = target: T2, Phospho-EGFR (Tyr1068) in A431 cells (Homo sapiens, UniProt P00533); experiment: HTRF pEGFR/total EGFR in A431 cells with EGF stimulation; assay type: cell-based; details: ratio pEGFR/total EGFR, compound 2.5 hours then 100 ng/ml EGF 30 mins
T2 construct: endogenous in cells; host or cells: A431
T2 sequence (P00533 25-1210): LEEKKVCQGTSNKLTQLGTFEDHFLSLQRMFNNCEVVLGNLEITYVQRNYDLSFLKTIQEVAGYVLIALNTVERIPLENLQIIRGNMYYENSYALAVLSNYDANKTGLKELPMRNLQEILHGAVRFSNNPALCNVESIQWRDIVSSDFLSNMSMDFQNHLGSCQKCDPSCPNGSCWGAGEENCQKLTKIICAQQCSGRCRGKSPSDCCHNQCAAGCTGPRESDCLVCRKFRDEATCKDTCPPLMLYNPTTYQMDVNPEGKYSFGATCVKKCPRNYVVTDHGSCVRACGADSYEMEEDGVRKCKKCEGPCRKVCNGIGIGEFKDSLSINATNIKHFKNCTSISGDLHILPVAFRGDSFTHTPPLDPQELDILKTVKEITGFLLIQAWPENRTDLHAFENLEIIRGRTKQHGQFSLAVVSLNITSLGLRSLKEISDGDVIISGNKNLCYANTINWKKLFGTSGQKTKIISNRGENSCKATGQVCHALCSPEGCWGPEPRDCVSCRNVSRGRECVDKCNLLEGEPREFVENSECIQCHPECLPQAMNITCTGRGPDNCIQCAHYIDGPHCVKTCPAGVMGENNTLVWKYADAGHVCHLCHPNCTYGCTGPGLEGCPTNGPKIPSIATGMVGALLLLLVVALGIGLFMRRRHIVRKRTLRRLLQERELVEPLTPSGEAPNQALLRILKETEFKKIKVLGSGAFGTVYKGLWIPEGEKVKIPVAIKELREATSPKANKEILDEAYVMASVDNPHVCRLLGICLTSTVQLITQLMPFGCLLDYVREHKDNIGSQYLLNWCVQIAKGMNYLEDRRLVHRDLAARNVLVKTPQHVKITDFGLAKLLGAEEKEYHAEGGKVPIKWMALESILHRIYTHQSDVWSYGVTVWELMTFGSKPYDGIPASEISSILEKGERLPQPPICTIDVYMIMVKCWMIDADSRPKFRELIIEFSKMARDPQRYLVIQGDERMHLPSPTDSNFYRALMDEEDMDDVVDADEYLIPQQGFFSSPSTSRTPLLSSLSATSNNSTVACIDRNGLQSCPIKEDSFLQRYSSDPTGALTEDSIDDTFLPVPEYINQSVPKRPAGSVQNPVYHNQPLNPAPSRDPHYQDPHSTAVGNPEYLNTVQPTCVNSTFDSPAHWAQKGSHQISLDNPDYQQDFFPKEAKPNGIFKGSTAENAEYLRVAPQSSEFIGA
Summary of the method: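 Values are pEGFR(Tyr1068)/total EGFR HTRF ratios (665/620 nm) given as percent of the 0 μM control. Adhered A431 cells (20,000 per well, 24 h) had 2.5 h compound pretreatment in 0.1% DMSO, then 30 min of 100 ng/ml EGF before lysis.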

[3] = target: T3, Phospho-EGFR (Tyr1068) in H1975 C797S cells (CRISPR-edited EGFR C797S) (Homo sapiens, UniProt P00533, C797S/L858R/T790M); experiment: HTRF pEGFR/total EGFR in H1975 C797S cells; assay type: cell-based; details: ratio pEGFR/total EGFR, compound 3 hours
T3 construct: host or cells: H1975 C797S (CRISPR-edited)
T3 sequence (P00533 25-1210 T790M/C797S/L858R): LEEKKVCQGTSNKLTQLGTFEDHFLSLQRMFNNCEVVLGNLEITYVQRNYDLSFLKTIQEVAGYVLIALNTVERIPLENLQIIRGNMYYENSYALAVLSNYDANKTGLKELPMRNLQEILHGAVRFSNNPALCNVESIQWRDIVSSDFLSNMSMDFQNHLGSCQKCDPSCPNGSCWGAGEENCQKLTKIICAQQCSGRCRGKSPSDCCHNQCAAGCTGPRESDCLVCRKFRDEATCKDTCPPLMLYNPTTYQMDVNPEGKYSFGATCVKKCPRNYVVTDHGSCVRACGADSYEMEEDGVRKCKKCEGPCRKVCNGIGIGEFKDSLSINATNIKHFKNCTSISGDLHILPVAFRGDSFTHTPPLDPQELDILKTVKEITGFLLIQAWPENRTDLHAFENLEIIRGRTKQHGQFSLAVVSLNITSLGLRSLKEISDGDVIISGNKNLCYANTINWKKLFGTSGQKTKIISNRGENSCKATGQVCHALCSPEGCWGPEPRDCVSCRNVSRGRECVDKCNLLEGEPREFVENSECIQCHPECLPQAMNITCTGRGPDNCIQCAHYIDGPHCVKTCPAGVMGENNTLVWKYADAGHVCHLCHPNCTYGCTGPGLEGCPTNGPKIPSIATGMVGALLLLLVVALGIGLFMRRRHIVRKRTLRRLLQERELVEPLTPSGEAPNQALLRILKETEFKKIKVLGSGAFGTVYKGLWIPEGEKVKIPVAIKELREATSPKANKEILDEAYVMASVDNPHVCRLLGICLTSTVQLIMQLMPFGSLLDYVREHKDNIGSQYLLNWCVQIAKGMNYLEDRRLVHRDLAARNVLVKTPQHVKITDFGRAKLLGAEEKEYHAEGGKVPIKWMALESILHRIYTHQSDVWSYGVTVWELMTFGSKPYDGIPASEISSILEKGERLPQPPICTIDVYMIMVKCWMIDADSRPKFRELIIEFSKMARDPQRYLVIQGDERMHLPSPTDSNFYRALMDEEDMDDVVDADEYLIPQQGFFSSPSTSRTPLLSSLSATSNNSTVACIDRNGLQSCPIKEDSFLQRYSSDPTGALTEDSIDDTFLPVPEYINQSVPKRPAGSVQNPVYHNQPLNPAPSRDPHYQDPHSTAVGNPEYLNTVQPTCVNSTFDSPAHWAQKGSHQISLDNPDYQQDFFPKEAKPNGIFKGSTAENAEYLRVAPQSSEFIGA
Summary of the method: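 Readout is the HTRF-measured Tyr1068 phospho-EGFR to total EGFR ratio, normalised to the 0 μM control as percent. Preceding this, CRISPR-edited H1975 C797S cells, plated 24 h earlier, were exposed 3 h to duplicate compound doses in medium with 0.1% DMSO, then lysed on a shaker.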

[4] = target: CtermHisTag-mEGFR Wild type (Homo sapiens, UniProt P00533); experiment: biochemical
CtermHisTag-mEGFR Wild type, sequence (P00533 whole entry): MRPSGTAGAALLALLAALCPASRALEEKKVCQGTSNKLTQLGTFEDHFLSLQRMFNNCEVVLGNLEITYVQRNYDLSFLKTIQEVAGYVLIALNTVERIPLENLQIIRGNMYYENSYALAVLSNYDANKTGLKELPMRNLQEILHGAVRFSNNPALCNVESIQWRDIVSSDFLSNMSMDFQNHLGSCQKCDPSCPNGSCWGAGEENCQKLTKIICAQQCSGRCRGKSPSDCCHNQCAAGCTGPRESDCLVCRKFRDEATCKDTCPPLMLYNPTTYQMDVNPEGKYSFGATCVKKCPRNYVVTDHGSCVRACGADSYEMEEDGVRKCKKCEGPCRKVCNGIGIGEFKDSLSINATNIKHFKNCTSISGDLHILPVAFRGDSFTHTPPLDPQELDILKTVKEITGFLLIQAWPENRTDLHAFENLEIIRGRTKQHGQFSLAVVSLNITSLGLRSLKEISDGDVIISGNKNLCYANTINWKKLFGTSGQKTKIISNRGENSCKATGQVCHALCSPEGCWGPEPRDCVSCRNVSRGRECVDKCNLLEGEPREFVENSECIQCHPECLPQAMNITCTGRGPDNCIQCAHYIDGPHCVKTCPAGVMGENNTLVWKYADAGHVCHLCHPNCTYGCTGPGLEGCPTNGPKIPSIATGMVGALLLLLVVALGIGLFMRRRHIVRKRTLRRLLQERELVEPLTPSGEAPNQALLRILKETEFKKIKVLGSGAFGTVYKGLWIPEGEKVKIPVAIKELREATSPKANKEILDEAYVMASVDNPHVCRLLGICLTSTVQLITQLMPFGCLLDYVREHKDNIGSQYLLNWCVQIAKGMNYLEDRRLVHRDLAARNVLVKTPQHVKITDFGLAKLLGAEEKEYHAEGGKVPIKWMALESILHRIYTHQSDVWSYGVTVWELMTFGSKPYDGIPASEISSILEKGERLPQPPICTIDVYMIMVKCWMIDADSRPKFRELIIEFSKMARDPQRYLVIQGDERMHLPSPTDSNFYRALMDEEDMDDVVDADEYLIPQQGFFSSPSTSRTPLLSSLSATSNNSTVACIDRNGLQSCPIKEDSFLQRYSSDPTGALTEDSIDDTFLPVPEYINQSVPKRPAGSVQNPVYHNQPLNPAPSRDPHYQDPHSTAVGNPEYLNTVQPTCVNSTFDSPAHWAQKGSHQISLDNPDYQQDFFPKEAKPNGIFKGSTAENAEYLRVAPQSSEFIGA

SMILES	IC50 [1]	IC50 [2]	IC50 [3]	IC50 [4]
C#Cc1cc(=O)n(C2CCN(C)C2)c2nc(Nc3ccc(N4CCN(C)CC4)cc3)ncc12 (centres unmarked) [Example 107, 5-ethynyl-2-{[4-(4-methylpiperazin-1-yl)phenyl]amino}-8-(1-methylpyrrolidin-3-yl)pyrido[2,3-d]pyrimidin-7-one]	> 3 µM	> 3 µM	1 to 3 µM	> 10 µM
C#Cc1cc(=O)n(C2CNC(=O)C2)c2nc(Nc3ccc(N4CCN(C)CC4)cc3)ncc12 (centres unmarked) [Example 108, 4-(5-ethynyl-2-{[4-(4-methylpiperazin-1-yl)phenyl]amino}-7-oxopyrido[2,3-d]pyrimidin-8-yl)pyrrolidin-2-one]	> 3 µM	> 3 µM	> 3 µM	> 10 µM
C#Cc1c(C)c(=O)n(Cc2ccno2)c2nc(Nc3ccc(N4CCN(C)CC4)cc3)ncc12 [Example 113, 5-ethynyl-6-methyl-2-{[4-(4-methylpiperazin-1-yl)phenyl]amino}-8-(1,2-oxazol-5-ylmethyl)pyrido[2,3-d]pyrimidin-7-one]	1 to 3 µM	1 to 3 µM	1 to 3 µM	1 to 10 µM
C#Cc1c(C)c(=O)n(Cc2ncco2)c2nc(Nc3ccc(N4CCN(C)CC4)cc3)ncc12 [Example 114, 5-ethynyl-6-methyl-2-{[4-(4-methylpiperazin-1-yl)phenyl]amino}-8-(1,3-oxazol-2-ylmethyl)pyrido[2,3-d]pyrimidin-7-one]	1 to 3 µM	1 to 3 µM	1 to 3 µM	< 1 µM
C#Cc1c(C)c(=O)n(Cc2cccnc2)c2nc(Nc3ccc(N4CCN(C)CC4)cc3)ncc12 [Example 116, 5-ethynyl-6-methyl-2-{[4-(4-methylpiperazin-1-yl)phenyl]amino}-8-(pyridin-3-ylmethyl)pyrido[2,3-d]pyrimidin-7-one]	> 3 µM	1 to 3 µM	> 3 µM	1 to 10 µM
C#Cc1cc(=O)n(C2CC(=O)N(C)C2)c2nc(Nc3ccc(N4CCN(C)CC4)cc3)ncc12 (centres unmarked) [Example 117, 4-(5-ethynyl-2-{[4-(4-methylpiperazin-1-yl)phenyl]amino}-7-oxopyrido[2,3-d]pyrimidin-8-yl)-1-methylpyrrolidin-2-one]	> 3 µM	> 3 µM	> 3 µM	> 10 µM
C#Cc1cc(=O)[nH]c2nc(Nc3ccccc3OC)ncc12 [Example 120, 5-ethynyl-2-((2-methoxyphenyl)amino)pyrido[2,3-d]pyrimidin-7(8H)-one]	> 3 µM	> 3 µM	> 3 µM	1 to 10 µM
C#Cc1c(-c2ccccc2Cl)c(=O)n(C)c2nc(Nc3ccc(N(C)CCN(C)C)cc3)ncc12 [Example 126]	1 to 3 µM	1 to 3 µM	> 3 µM	< 1 µM
C#Cc1c(-c2ccccc2Cl)c(=O)n(C)c2nc(Nc3cccc(OC)c3)ncc12 [Example 131, 6-(2-chlorophenyl)-5-ethynyl-2-[(3-methoxyphenyl)amino]-8-methylpyrido[2,3-]pyrimidin-7-one]	1 to 3 µM	> 3 µM	> 3 µM	1 to 10 µM
C#Cc1c(-c2c(Cl)cccc2Cl)c(=O)n(C)c2nc(Nc3ccc(N(C)CCN(C)C)cc3)ncc12 [Example 134, 6-(2,6-dichlorophenyl)-2-[(4-{[2-(dimethylamino)ethyl](methyl)amino}phenyl)amino]-5-ethynyl-8-methylpyrido[2,3-d]pyrimidin-7-one]	> 3 µM	> 3 µM	> 3 µM	> 10 µM

The remaining lines, values ahead:

IC50 [1]	IC50 [2]	IC50 [3]	IC50 [4]	SMILES
1 to 3 µM	1 to 3 µM	1 to 3 µM	1 to 10 µM	C#Cc1c(C)c(=O)n(Cc2ccn[nH]2)c2nc(Nc3ccc(N4CCN(C)CC4)cc3)ncc12 [Example 109, 5-ethynyl-6-methyl-2-{[4-(4-methylpiperazin-1-yl)phenyl]amino}-8-(2H-pyrazol-3-ylmethyl)pyrido[2,3-d]pyrimidin-7-one]
0.5 to 1 µM	1 to 3 µM	1 to 3 µM	< 1 µM	C#Cc1c(C)c(=O)n(Cc2ccn(C)n2)c2nc(Nc3ccc(N4CCN(C)CC4)cc3)ncc12 [Example 110, 5-ethynyl-6-methyl-2-{[4-(4-methylpiperazin-1-yl)phenyl]amino}-8-[(1-methylpyrazol-3-yl)methyl]pyrido[2,3-d]pyrimidin-7-one]
1 to 3 µM	> 3 µM	1 to 3 µM	1 to 10 µM	C#Cc1c(C)c(=O)n(Cc2cnc[nH]2)c2nc(Nc3ccc(N4CCN(C)CC4)cc3)ncc12 [Example 111, 5-ethynyl-8-(3H-imidazol-4-ylmethyl)-6-methyl-2-{[4-(4-methylpiperazin-1-yl)phenyl]amino}pyrido[2,3-d]pyrimidin-7-one]
1 to 3 µM	> 3 µM	1 to 3 µM	1 to 10 µM	C#Cc1c(C)c(=O)n(Cc2ccnn2C)c2nc(Nc3ccc(N4CCN(C)CC4)cc3)ncc12 [Example 112, 5-ethynyl-6-methyl-2-{[4-(4-methylpiperazin-1-yl)phenyl]amino}-8-[(2-methylpyrazol-3-yl)methyl]pyrido[2,3-d]pyrimidin-7-one]
0.5 to 1 µM	1 to 3 µM	1 to 3 µM	< 1 µM	C#Cc1c(C)c(=O)n(Cc2cccnc2)c2nc(Nc3ccc(N4CCN(C)CC4)cc3)ncc12 [Example 115, 5-ethynyl-6-methyl-2-{[4-(4-methylpiperazin-1-yl)phenyl]amino}-8-(pyridin-3-ylmethyl)pyrido[2,3-d]pyrimidin-7-one]
< 0.5 µM	1 to 3 µM	< 0.5 µM	< 1 µM	C#Cc1cc(=O)n(Cc2ccn(C)n2)c2nc(Nc3ccc(N4CCN(C)CC4)cc3)ncc12 [Example 118, 5-ethynyl-2-{[4-(4-methylpiperazin-1-yl)phenyl]amino}-8-[(1-methylpyrazol-3-yl)methyl]pyrido[2,3-d]pyrimidin-7-one]
0.5 to 1 µM	> 3 µM	0.5 to 1 µM	> 10 µM	C#Cc1cc(=O)n(CC2CCNC2=O)c2nc(Nc3ccc(N4CCN(C)CC4)cc3)ncc12 (centres unmarked) [Example 119, 3-[(5-ethynyl-2-{[4-(4-methylpiperazin-1-yl)phenyl]amino}-7-oxopyrido[2,3-d]pyrimidin-8-yl)methyl]pyrrolidin-2-one]
0.5 to 1 µM	0.5 to 1 µM	1 to 3 µM	< 1 µM	C#Cc1c(-c2ccccc2Cl)c(=O)n(C)c2nc(Nc3ccc(N4CCN(C)CC4)cc3OC)ncc12 [Example 127, 6-(2-chlorophenyl)-5-ethynyl-2-{[2-methoxy-4-(4-methylpiperazin-1-yl)phenyl]amino}-8-methylpyrido[2,3-d]pyrimidin-7-one]
0.5 to 1 µM	< 0.5 µM	> 3 µM	< 1 µM	C#Cc1c(-c2ccccc2Cl)c(=O)n(C)c2nc(Nc3ccc(N4CCN(C)CC4)cc3)ncc12 [Example 128, 6-(2-chlorophenyl)-5-ethynyl-8-methyl-2-{[4-(4-methylpiperazin-1-yl)phenyl]amino}pyrido[2,3-d]pyrimidin-7-one]
0.5 to 1 µM	0.5 to 1 µM	> 3 µM	< 1 µM	C#Cc1c(-c2ccccc2Cl)c(=O)n(C)c2nc(Nc3ccc(OCCN(C)C)cc3)ncc12 [Example 129, 6-(2-chlorophenyl)-2-({4-[2-(dimethylamino)ethoxy]phenyl}amino)-5-ethynyl-8-methylpyrido[2,3-d]pyrimidin-7-one]
0.5 to 1 µM	1 to 3 µM	1 to 3 µM	< 1 µM	C#Cc1c(-c2ccccc2Cl)c(=O)n(C)c2nc(Nc3cccc(CO)c3)ncc12 [Example 132, 6-(2-chlorophenyl)-5-ethynyl-2-{[3-(hydroxymethyl)phenyl]amino}-8-methylpyrido[2,3-]pyrimidin-7-one]
0.5 to 1 µM	1 to 3 µM	0.5 to 1 µM	< 1 µM	C#Cc1c(-c2cccc(F)c2Cl)c(=O)n(C)c2nc(Nc3ccc(N(C)CCN(C)C)cc3)ncc12 [Example 135, 6-(2-chloro-3-fluorophenyl)-2-[(4-{[2-(dimethylamino)ethyl](methyl)amino}phenyl)amino]-5-ethynyl-8-methylpyrido[2,3-d]pyrimidin-7-one]
< 0.5 µM	1 to 3 µM	0.5 to 1 µM	< 1 µM	C#Cc1c(-c2cc(OC)ccc2Cl)c(=O)n(C)c2nc(Nc3ccc(N(C)CCN(C)C)cc3)ncc12 [Example 136, 6-(2-chloro-5-methoxyphenyl)-2-[(4-{[2-(dimethylamino)ethyl](methyl)amino}phenyl)amino]-5-ethynyl-8-methylpyrido[2,3-d]pyrimidin-7-one]
